Data set [1] is described as follows: ABTS^● decolorization assay. As to conditions: 30 min incubation at room temperature, absorbance at 734 nm. Here is the method: A modification of the ABTS^● decolorization assay was employed. Briefly, various volumes of solutions of the studied compounds were introduced to wells of a 96-well microplate, each prefilled 200 μL of ABTS^● solution. […] The drop in absorbance after 30 min incubation at room temperature was read as a measure of the antioxidant activity.
(§1) All assays were standardized with respect to Trolox. The antioxidant activity was calculated in each case as a ratio of the slope of the dependence of absorbance change on the concentration of a studied compound to the slope of the dependence of absorbance change of standard samples concerning Trolox on the concentration of Trolox. Antioxidant activities were expressed in moles of Trolox equivalents (TE)/mol of a studied compound, as described previously.

The nature of data set [2]: DPPH^● decolorization assay. The settings on record: 30 min at ambient temperature in the dark, absorbance at 517 nm. Here is the method: The assay was performed as described in a previous article. Briefly, increasing volumes of solutions of the studied compounds were introduced to wells of a 96-well microplate, each with 200 μL of 0.3 mM DPPH^● solution in methanol. The reaction was allowed to proceed for 30 min at ambient temperature in the dark, and absorbance at 517 nm was read. The absorbance decrease was a measure of the antioxidant activity.
as §1
A general note: The DPPH test is a chemical assay of radical scavenging.

Data set [3] can be described thus: Ferric reducing antioxidant power (FRAP) assay. As to conditions: 30 min at ambient temperature, pH 3.6, absorbance at 593 nm. The method, then: The method proposed by Benzie and Strain [91] was employed with a slight modification. Briefly, increasing volumes of solutions of the studied compounds were added to wells of a 96-well microplate prefilled with 200 μL of the working solution composed of 0.3 M acetate buffer, pH 3.6 (10 volumes), 10 mM 2,4,6-tris(2-pyridyl)-s-triazine (TPTZ), in 40 mM HCl (1 volume) and 20 mM FeCl3 (1 volume), was prepared immediately before use. After 30 min incubation at ambient temperature and the absorbance of the Fe^2+-TPTZ complex was read at 593 nm.
as §1

Data set [4] concerns SKOV-3 ovarian cancer cells. Kind of data set: Cytotoxicity (Neutral Red), SKOV-3 cells. The format is cell-based, human. As to conditions: 24 h exposure. The method, then:
(§2) The PEO1 cells, SKOV-3 cells, and MRC-5 cells were grown at 37 °C and 5% CO2 in RPMI + GlutaMAX medium, McCoy’s 5A medium, and the DMEM + GlutaMAX medium, respectively. The media were supplemented with 10% heat-inactivated fetal calf serum and penicillin/streptomycin. The cell viability was evaluated using the Trypan Blue exclusion test.
(§3) In the cytotoxicity experiments, cells were grown in wells of sterile 96-well plates. The seeding density was 1 × 10^4 for SKOV-3 and MRC-5 cells and 1.5 × 10^4 for PEO1 cells. The cells were allowed to grow in the incubator for 24 h. Then, the medium was removed and new medium with an examined compound was added. The stock solutions of the compounds studied diluted with the appropriate cell medium were filtered before the addition to the cells using 0.22 µm filters. No more than 0.02% of DMSO was present in the media, and it had no discernible impact on the treated cells. Cells not exposed to any compound served as a control. After another 24 h incubation, the medium was gently aspirated, and the wells were added with 2% sterile Neutral Red solution (100 µL). The plates were then incubated (37 °C, 5% CO2) for one hour. The Neutral Red solution was aspirated, and the wells were washed two times with warm (37 °C) PBS. Subsequently, 100 µL of a permeabilization mixture (water/ethanol/glacial acetic acid, 50/49/1, v/v/v) was introduced to each well. The plates were shaken at 700 rpm for 20 min and absorbance was read at a wavelength of 540 nm against 620 nm.

Data set [5] has as its system PEO1 ovarian cancer cells. The data set can be described thus: Cytotoxicity (Neutral Red), PEO1 cells. The settings on record: for pIC50: Homo sapiens, read-out: IC50 PEO1. The format is cell-based, human. Here is the method:
as §2, §3

The subject of data set [6] is MRC-5 fibroblasts. Kind of data set: Cytotoxicity (Neutral Red), MRC-5 fibroblasts. It is filed as cell-based, human. As to conditions: for Concentration at which viability of MRC-5 cells was lowered / Concentration range with no significant decrease in viability of MRC-5 cells: 24 h exposure; for Concentration at which viability of MRC-5 cells was lowered: p < 0.05. The method, then:
as §2, §3

Data set [7] deals with HT-1080 fibrosarcoma cells. Further details: method as in PMID 21116690. The settings on record: read-out: Concentration decreasing the viability of HT-1080 cells (by 50%); cited from earlier work.
Data set [8] has as its system MDA-MB-231 cells. Further details: method as in PMID 29048370. As to conditions: read-out: Concentration decreasing the viability of MDA-MB-231 cells (by 50%); cited from earlier work.
Data set [9] has as its system cervical cancer HeLa cells. On the set-up: method as in PMID 21199742. The settings on record: after 24 h exposure; read-out: Concentration decreasing the viability of HeLa cells by 50%; cited from earlier work.
Data set [10] relates to neuroblastoma N2a cells. On the set-up: method as in PMID 24760364. As to conditions: after 24 h; read-out: Concentration decreasing proliferation of N2a cells by 50%; cited from earlier work.
In data set [11] the test system is A375 melanocytes. Further details: method as in PMID 33178586. As to conditions: read-out: Concentration decreasing proliferation of A375 melanocytes by 50%; cited from earlier work.
In data set [12] the test system is B16 melanocytes. Further details: method as in PMID 33178586. As to conditions: read-out: Concentration decreasing proliferation of B16 melanocytes by 50%; cited from earlier work.
Data set [13] deals with colon carcinoma HT-29 cells. Further details: method as in PMID 24282361. As to conditions: after 48 h exposure; read-out: Concentration decreasing proliferation of HT-29 cells by 50%; cited from earlier work.
Data set [14] relates to colorectal carcinoma HCT-15 cells. Further details: method as in PMID 24282361. The settings on record: after 48 h exposure; read-out: Concentration decreasing proliferation of HCT-15 cells by 50%; cited from earlier work.
For data set [15], the system named is microsomal lipid peroxidation. On the set-up: method as in PMID 16822206. The settings on record: cited from earlier work.
The subject of data set [16] is cervical epidermoid carcinoma Ca Ski cells. Further details: method as in PMID 19035312. As to conditions: 24 h exposure; read-out: Concentration decreasing viability of Ca Ski cells to about 50%; cited from earlier work.
In data set [17] the test system is breast cancer MCF-7 cells. On the set-up: method as in PMID 18817629. As to conditions: 24 h exposure; read-out: Concentration decreasing viability of MCF-7 cells to about 50%; cited from earlier work.
The test system of data set [18] is prostatic carcinoma LNCaP cells. Further details: method as in PMID 16142693. As to conditions: 100 μM, 24 h exposure; cited from earlier work.
In data set [19] the test system is lung cancer A549 cells. On the set-up: method as in PMID 16024053. The settings on record: 200 μM, 24 h exposure; cited from earlier work.
Data set [20] relates to colorectal cancer HCT-116 cells. Further details: method as in PMID 19202565. As to conditions: 400 μM, 24 h exposure; cited from earlier work.
Data set [21] concerns MDA-MB-468 cells. On the set-up: method as in earlier work. The settings on record: 1.5 mM, 24 h exposure; cited from earlier work.
The subject of data set [22] is lung epithelial BEAS-2B cells. On the set-up: method as in earlier work. The settings on record: 1.5 mM, 24 h exposure; cited from earlier work.
Data set [23] deals with MDA-MB-231 cells. Further details: method as in PMID 27177074. As to conditions: 100 μM; cited from earlier work.
For data set [24], the system named is PC-3 prostate cancer cells. On the set-up: method as in PMID 26124008. The settings on record: read-out: Concentration decreasing viability of PC-3 cells to 50%; cited from earlier work.
Data set [25] concerns LNCaP prostate cancer cells. Further details: method as in PMID 26124008. As to conditions: read-out: Concentration decreasing viability of LNCaP cells to 50%; cited from earlier work.
Data set [26] relates to osteosarcoma 143B cells. On the set-up: method as in PMID 27158383. The settings on record: after 48 h; read-out: Concentration decreasing viability of 143B cells to 50%; cited from earlier work.
Data set [27] has as its system osteosarcoma MG63 cells. On the set-up: method as in PMID 27158383. As to conditions: after 48 h; read-out: Concentration decreasing viability of MG63 cells to 50%; cited from earlier work.
Setting [28] is: PEO1, 24 h exposure, Neutral Red.

This is an account of results in publication PMC11313193, “Which Constituents Determine the Antioxidant Activity and Cytotoxicity of Garlic? Role of Organosulfur Compounds and Phenolics” (International Journal of Molecular Sciences, 2024).

pIC50: −log10 of the molar value. Like-named read-outs stand apart in the source and are kept apart here.

Regarding `O=C(O)/C=C/c1ccc(O)c(O)c1` [Caffeic acid, caffeic acid], the “Antioxidant activity, ABTS^● Decolorization” value in [1] is recorded as 0.771 ± 0.066 mol Trolox equivalents (TE)/mol compound. Further, the “Antioxidant activity, DPPH^● Decolorization” value in data set [2] is on record as 0.001 ± 0.006 mol Trolox equivalents (TE)/mol compound. Besides, in data set [3], the “Antioxidant activity, FRAP” value is recorded as 0.019 ± 0.002 mol Trolox equivalents (TE)/mol compound. Further, the “Concentration range with no significant decrease in viability of SKOV-3 cells” value in data set [4] was “up to 1000 µM”. Also, the pIC50 in data set [4] (Homo sapiens, SK-OV-3, Neutral Red, read-out: IC50 SKOV-3) was 2.88; in [5] (setting [28]) it was 3.61; in [7], 4.52; in data set [8], 3.82; in data set [9], roughly 2.70. Also, in [5] (24 h exposure, p < 0.05), the “Concentration at which viability of PEO1 cells was lowered” value was in the range of 300 to 1000 µM. Further, in data set [6], the “Concentration at which viability of MRC-5 cells was lowered” value came out at 1000 µM.

As for `O=C(O)/C=C/c1ccc(O)cc1` [Coumaric acid], in data set [1], the “Antioxidant activity, ABTS^● Decolorization” value is 0.585 ± 0.082 mol Trolox equivalents (TE)/mol compound. Also, the “Antioxidant activity, DPPH^● Decolorization” value in data set [2] is reported as 0.076 ± 0.005 mol Trolox equivalents (TE)/mol compound. Also, the “Antioxidant activity, FRAP” value in [3] is 0.153 ± 0.003 mol Trolox equivalents (TE)/mol compound. Besides, the “Concentration range with no significant decrease in viability of SKOV-3 cells” value in data set [4] lay within 0 to 1000 µM. Moreover, the “Concentration range with no significant decrease in viability of PEO1 cells” value in data set [5] (24 h exposure) was in the range of 0 to 1000 µM. The pIC50 was 2.85 in data set [5] (setting [28]); 3.98 in data set [10]; 2.60 in data set [11]; 2.55 in [12]; 2.85 in [13]; 2.80 in data set [14]. Also, the “Concentration range with no significant decrease in viability of MRC-5 cells” value in data set [6] is 0 to 1000 µM.

Regarding `C=CCSSCC=C` [Diallyl disulfide, diallyl disulfide], the “Antioxidant activity, ABTS^● Decolorization” value in data set [1] is recorded as 0.013 ± 0.006 mol Trolox equivalents (TE)/mol compound. In data set [2], the “Antioxidant activity, DPPH^● Decolorization” value was 0.049 ± 0.014 mol Trolox equivalents (TE)/mol compound. Also, the “Antioxidant activity, FRAP” value in data set [3] is reported as 0.0025 ± 0.0011 mol Trolox equivalents (TE)/mol compound. Also, the pIC50 in [5] (PEO1, 24 h) is 3.58; in data set [6] (Homo sapiens, MRC5, 24 h, read-out: IC50 MRC-5), 3.57; in data set [16], roughly 4.60; in data set [17], 3.40. For the same compound, the “Concentration at which viability of MRC-5 cells was lowered” value in data set [6] was found to be 300 µM. Moreover, the “Termination of lipid peroxidation / prevention of induced microsomal lipid peroxidation” value in data set [15] is on record as “efficient lipid peroxidation terminator”. The “Reduction of survival of LNCaP cells” value in data set [18] is on record as “about 30%”. The “Reduction of survival of A549 cells” value in [19] is on record as “about 20%”. For the same compound, the “Survival of HCT-116 cells (decreased to)” value in data set [20] is reported as “ca. 80%”. In addition, the “Viability of MDA-MB-468 cells (reduced to)” value in data set [21] is listed as “about 65%”. Also, in data set [22], the “Viability of BEAS-2B cells (reduced to)” value is listed as “about 75%”.

In the case of `COc1cc(/C=C/C(=O)O)ccc1O` [Ferulic acid, ferulic acid], the “Antioxidant activity, ABTS^● Decolorization” value in data set [1] was 1.409 ± 0.096 mol Trolox equivalents (TE)/mol compound. In addition, the “Antioxidant activity, DPPH^● Decolorization” value in data set [2] is on record as 0.185 ± 0.070 mol Trolox equivalents (TE)/mol compound. Also, in data set [3], the “Antioxidant activity, FRAP” value is listed as 0.554 ± 0.017 mol Trolox equivalents (TE)/mol compound. Further, the “Concentration range with no significant decrease in viability of SKOV-3 cells” value in [4] is 0 to 1000 µM. The “Concentration range with no significant decrease in viability of PEO1 cells” value in data set [5] (24 h exposure) is 0 to 1000 µM. Further, in data set [6], the “Concentration range with no significant decrease in viability of MRC-5 cells” value lay within 0 to 1000 µM. Besides, the “Viability of MDA-MB-231 cells (decreased to)” value in data set [23] is “about 75%”. Further, the pIC50 was 3.52 in [24], 3.30 in data set [25], 4.22 in [26] and 4.18 in data set [27].
